Assay results published in PubChem BioAssay AID330 (DTP/NCI, 2004).
Where “and” joins values, the source holds several entries; their conditions need not be identical. Equal values may be shown once. Inconclusive results and toxic doses are left out. The calls were made as follows: active = survival T/C of 150% or more; inactive = T/C below 125% in these data.

System: P388 leukemia ip, CD2F1 mice, survival T/C
Assay: NCI In Vivo Anticancer Drug Screen. Data for tumor model P388 Leukemia (intraperitoneal) in CD2F1 (CDF1) mice
Conditions: endpoint: median survival time, higher = longer survival
Method in brief: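 Mice carrying the transplanted tumor received test compound or vehicle. Survival was recorded in each group, and the value is the treated-group measurement divided by that of the vehicle-treated control group.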

[1] = dose: 50.0 mg/kg/injection, schedule: Q01DX009 (ip), vehicle: Klucel (hydroxypropylcellulose) (HPC)
[2] = dose: 100.0 mg/kg/injection, schedule: Q01DX009 (ip), vehicle: Klucel (hydroxypropylcellulose) (HPC)
[3] = dose: 50.0 mg/kg/injection, schedule: Q01DX009 (ip), vehicle: saline
[4] = dose: 60.0 mg/kg/injection, schedule: Q01DX005 (ip), vehicle: saline with Tween-80
[5] = dose: 120.0 mg/kg/injection, schedule: Q01DX005 (ip), vehicle: saline with Tween-80
[6] = dose: 240.0 mg/kg/injection, schedule: Q01DX005 (ip), vehicle: saline with Tween-80
[7] = dose: 50.0 mg/kg/injection, schedule: Q01DX005 (ip), vehicle: saline with Tween-80
[8] = dose: 100.0 mg/kg/injection, schedule: Q01DX009 (ip), vehicle: saline
[9] = dose: 200.0 mg/kg/injection, schedule: Q01DX009 (ip), vehicle: saline
[10] = dose: 100.0 mg/kg/injection, schedule: Q01DX005 (ip), vehicle: saline with Tween-80
[11] = dose: 200.0 mg/kg/injection, schedule: Q01DX005 (ip), vehicle: saline with Tween-80
[12] = dose: 50.0 mg/kg/injection, schedule: Q01DX009 (ip), vehicle: saline with Tween-80
[13] = dose: 100.0 mg/kg/injection, schedule: Q01DX009 (ip), vehicle: saline with Tween-80
[14] = dose: 200.0 mg/kg/injection, schedule: Q01DX009 (ip), vehicle: saline with Tween-80
[15] = dose: 12.5 mg/kg/injection, schedule: Q01DX005 (ip), vehicle: saline
[16] = dose: 25.0 mg/kg/injection, schedule: Q01DX005 (ip), vehicle: saline
[17] = dose: 50.0 mg/kg/injection, schedule: Q01DX005 (ip), vehicle: saline

Measured: T/C

FC(F)(F)c1ccc(Cl)c(N=Cc2ccc(C=Nc3cc(C(F)(F)F)ccc3Cl)cc2)c1
inactive: [1] 91 % of control | [2] 98 % of control

c1ccc(Cc2cc[n+](Cc3ccccc3)cc2)cc1
inactive: dose: 12.5 mg/kg/injection, schedule: Q01DX009 (ip), vehicle: saline 100 % of control | dose: 25.0 mg/kg/injection, schedule: Q01DX009 (ip), vehicle: saline 101 % of control | [3] 101 % of control and 89 % of control

NC(N)=Nc1c(N)ncnc1N
inactive: [4] 104 % of control and 95 % of control | [5] 100 % of control | [6] 96 % of control and 98 % of control

C/C(=N\NC(=S)N1CCCCC1C)c1nccs1 (stereo unspecified)
inactive: dose: 12.5 mg/kg/injection, schedule: Q01DX005 (ip), vehicle: saline with Tween-80 100 % of control and 108 % of control | dose: 25.0 mg/kg/injection, schedule: Q01DX005 (ip), vehicle: saline with Tween-80 104 % of control and 111 % of control | [7] 112 % of control and 118 % of control

CCC12Nc3ccc([N+](=O)[O-])cc3C(CC)(C1=O)C(c1ccccc1)=C2c1ccccc1 (stereo unspecified)
inactive: [1] 113 % of control | [2] 110 % of control | dose: 200.0 mg/kg/injection, schedule: Q01DX009 (ip), vehicle: Klucel (hydroxypropylcellulose) (HPC) 112 % of control

COc1cc(C[C@@H]([C@@H](CO)Cc2ccc3c(c2)OCO3)[C@H](O)CO)cc(OC)c1OC
inactive: dose: 6.25 mg/kg/injection, schedule: Q04DX002 (ip), vehicle: acetone 103 % of control | dose: 12.5 mg/kg/injection, schedule: Q04DX002 (ip), vehicle: acetone 100 % of control | dose: 25.0 mg/kg/injection, schedule: Q04DX002 (ip), vehicle: acetone 100 % of control

C=C(C)C(=O)OCCC[Si](OCCOC)(OCCOC)OCCOC
inactive: [3] 95 % of control | [8] 95 % of control | [9] 106 % of control

COc1ccc(-c2cn(-c3ccc(OC)cc3)c3ncnc(N)c23)cc1
inactive: [4] 102 % of control | [5] 100 % of control | [6] 96 % of control

COc1ccc(CN2CCCN(Cc3ccc(OC)cc3)P2(=O)Nc2ccc(OC)cc2)cc1
inactive: [7] 97 % of control | [10] 100 % of control | [11] 100 % of control

Cc1ncn2c(C)nnc2c1C
inactive: [12] 102 % of control | [13] 100 % of control | [14] 102 % of control

COC(CC[S+](C)C)C(=O)O (stereo unspecified)
inactive: dose: 32.0 mg/kg/injection, schedule: Q01DX005 (ip), vehicle: water 105 % of control | dose: 64.0 mg/kg/injection, schedule: Q01DX005 (ip), vehicle: water 97 % of control | dose: 128.0 mg/kg/injection, schedule: Q01DX005 (ip), vehicle: water 102 % of control | dose: 256.0 mg/kg/injection, schedule: Q01DX005 (ip), vehicle: water 101 % of control

O=c1c2c([nH]c3c1ccc1c(=O)c4c([nH]c13)CCCC4)CCCC2
inactive: [12] 98 % of control | [13] 96 % of control | [14] 94 % of control

O=CNc1c2ccccc2c(NC=O)c2ccccc12
inactive: [7] 92 % of control | [10] 88 % of control | [11] 101 % of control

O=C(Nc1ccccc1)N1CC2(CN1)CNN(C(=O)Nc1ccccc1)C2
inactive: dose: 50.0 mg/kg/injection, schedule: Q01DX001 (ip), vehicle: Klucel (hydroxypropylcellulose) (HPC) 103 % of control | dose: 100.0 mg/kg/injection, schedule: Q01DX001 (ip), vehicle: Klucel (hydroxypropylcellulose) (HPC) 100 % of control | dose: 200.0 mg/kg/injection, schedule: Q01DX001 (ip), vehicle: Klucel (hydroxypropylcellulose) (HPC) 91 % of control

NC(Cn1ccc(=O)c(O)c1)C(=O)O (stereo unspecified)
inactive: [15] 113 % of control | [16] 115 % of control | [17] 107 % of control | dose: 100.0 mg/kg/injection, schedule: Q01DX005 (ip), vehicle: saline 116 % of control | [8] 100 % of control and 96 % of control | dose: 200.0 mg/kg/injection, schedule: Q01DX005 (ip), vehicle: saline 114 % of control | [9] 102 % of control and 114 % of control | dose: 400.0 mg/kg/injection, schedule: Q01DX009 (ip), vehicle: saline 107 % of control and 96 % of control | dose: 600.0 mg/kg/injection, schedule: Q01DX009 (ip), vehicle: saline 98 % of control and 102 % of control

CC(C)(C)C(=O)CC(=O)C(C)(C)C.[Cu]
inactive: dose: 100.0 mg/kg/injection, schedule: Q04DX003 (ip), vehicle: saline with Tween-80 94 % of control | dose: 200.0 mg/kg/injection, schedule: Q04DX003 (ip), vehicle: saline with Tween-80 101 % of control

COc1ccc2c(c1)[C@]1(C)CCN(C)[C@@H]1N2C
inactive: [15] 105 % of control | [16] 98 % of control | [17] 105 % of control

Cc1ccc(OS(=O)(=O)NC(=O)NCc2ccco2)cc1
inactive: [3] 92 % of control | [8] 101 % of control | [9] 105 % of control

O=[N+]([O-])c1ccc(/C(=C/c2ccc(Cl)cc2Cl)S(=O)(=O)C(Cl)Cl)o1
inactive: dose: 50.0 mg/kg/injection, schedule: Q01DX009 (ip), vehicle: suspension in saline 86 % of control | dose: 100.0 mg/kg/injection, schedule: Q01DX009 (ip), vehicle: suspension in saline 96 % of control | dose: 200.0 mg/kg/injection, schedule: Q01DX009 (ip), vehicle: suspension in saline 103 % of control

O=C1c2c(O)ccc(N3CCOCC3)c2C(=O)c2c(N3CCOCC3)ccc(O)c21
inactive: dose: 60.0 mg/kg/injection, schedule: Q01DX005 (ip), vehicle: Klucel (hydroxypropylcellulose) (HPC) 103 % of control | dose: 120.0 mg/kg/injection, schedule: Q01DX005 (ip), vehicle: Klucel (hydroxypropylcellulose) (HPC) 98 % of control | dose: 240.0 mg/kg/injection, schedule: Q01DX005 (ip), vehicle: Klucel (hydroxypropylcellulose) (HPC) 100 % of control

O=C(NCC1OC(n2cnc3c(=O)[nH]cnc32)C(O)C1O)c1ccc(S(=O)(=O)F)cc1 (stereo unspecified)
inactive: dose: 50.0 mg/kg/injection, schedule: Q01DX001 (ip), vehicle: saline with Tween-80 99 % of control | dose: 100.0 mg/kg/injection, schedule: Q01DX001 (ip), vehicle: saline with Tween-80 96 % of control | dose: 200.0 mg/kg/injection, schedule: Q01DX001 (ip), vehicle: saline with Tween-80 108 % of control

CONCc1ccc(C(=O)NC(C)C)cc1
inactive: dose: 25.0 mg/kg/injection, schedule: Q01DX009 (ip), vehicle: distilled water + Tween-80 105 % of control | dose: 50.0 mg/kg/injection, schedule: Q01DX009 (ip), vehicle: distilled water + Tween-80 106 % of control | dose: 100.0 mg/kg/injection, schedule: Q01DX009 (ip), vehicle: distilled water + Tween-80 90 % of control | dose: 200.0 mg/kg/injection, schedule: Q01DX009 (ip), vehicle: distilled water + Tween-80 90 % of control

COc1ccc(C2OCC3C2CO[C@H]3c2ccc(OC)c(OC)c2)cc1OC (mixture of isomers)
inactive: dose: 8.0 mg/kg/injection, schedule: Q01DX009 (ip), vehicle: Klucel (hydroxypropylcellulose) (HPC) 90 % of control | dose: 16.0 mg/kg/injection, schedule: Q01DX009 (ip), vehicle: Klucel (hydroxypropylcellulose) (HPC) 97 % of control | dose: 32.0 mg/kg/injection, schedule: Q01DX009 (ip), vehicle: Klucel (hydroxypropylcellulose) (HPC) 91 % of control | dose: 64.0 mg/kg/injection, schedule: Q01DX009 (ip), vehicle: Klucel (hydroxypropylcellulose) (HPC) 89 % of control
